What was measured:
Type in all cases: cell-based
[1] = system: cultured cells of Taxus media; test: Taxus media cell culture with derivatives of jasmonic acids
Method: A part of germ of Taxus media which had been previously sterilized with 2% antiformin solution or 70% ethanol solution or the like, was placed on solid Woody Plant Medium (containing gelan gum of 0.25% by weight) to which naphthalenacetic acid had been added to give the concentration of 10^−5 M, and static culture was carried out at 25° C. in a dark place to provide callus of Taxus media. One gram (fresh weight) of the callus was inoculated to an Erlenmeyer flask containing 20 ml of liquid Woody Plant Medium to which above-mentioned component was added to give the same concentration, the and shake culture was carried out with a rotary shaker (amplification of 25 mm, 100 rpm) and the callus was subcultured in every 14 days to accelerate the growth rate thereof.
Two grams (fresh weight) of the cultured cells thus obtained was inoculated to an Erlenmeyer flask containing 20 ml of liquid Woody Plant […], and the culture was further carried out for another 14 days.
After completing the culture, cultured cells of Taxus media were harvested by filtration and lyophilized, then the dry weight was measured to obtain the yield of the cultured cells per liter of the liquid medium.

[2] = system: cultured cells of Taxus baccata LINN; test: Taxus baccata cell culture with fatty acids or natural oil; conditions: added fatty acid 100 μM; 14 days
Method: One gram (fresh weight) of the callus was inoculated to an Erlenmeyer flask containing 20 ml of liquid Woody Plant Medium and shake culture was carried out with a rotary shaker (amplification of 25 mm, 100 rpm) and the callus was subcultured in every 21 days to accelerate the growth rate thereof.

[3] = system: cultured cells of Taxus baccata LINN; test: Taxus baccata cell culture with cyclic polysaccharides and methyl ester of jasmonic acid
Method: […] After completing the culture, cultured cells of Taxus baccata LINN were harvested by filtration and lyophilized, then the dry weight was measured to obtain the yeild thereof per liter of the liquid medium.

[4] = system: cultured cells of Taxus baccata LINN; test: Taxus baccata cell culture with coronatines
Method: A part of stem of Taxus baccata LINN which had been previously sterilized with 2% antiformin solution or 70% ethanol solution or the like, was placed on solid Woody Plant Medium (containing gelan gum of 0.25% by weight) to which naphthalenacetic acid had been added to give the concentration of 10^−5 M, and static culture was carried out at 25 ° C. in a dark place to provide callus of Taxus baccata LINN. One gram (fresh weight) of the callus was inoculated to an Erlenmeyer flask containing 20 ml of liquid Woody Plant Medium to which the above-mentioned component was added to give the same concentration and shake culture was carried out with a rotary shaker (amplification of 25 mm, 120 rpm) and the callus was subcultured in every 21 days to accelerate the growth rate thereof.
One gram (fresh weight) of the cultured cells thus obtained was inoculated to an Erlenmeyer flask containing 20 ml of liquid Woody Plant Medium to which the above-mentioned component was added to give the same concentration, and shake culture was carried out at 25° C. for 14 days. On the 14th day after starting the culture, 50 μl of coronatine [formula (IV)] was added as coronatines to the culture medium to give the final concentration of 0.001-1000 μM and the culture was further carried out for another 7 days.
After completing the culture, cultured cells of Taxus baccata LINN were harvested by filtration and lyophilized, then the dry weight was measured to obtain the yeild of the cultured cells per liter of the liquid medium.

[5] = concentration of derivative of jasmonic acids 100 μM
[6] = cyclic polysaccharide 10 mM + methyl ester of jasmonic acid 100 μM
[7] = concentration of coronatines 10 μM
[8] = concentration of coronatines 1 μM
[9] = methyl ester of jasmonic acid 100 μM, β-cyclodextrin 0 mM
[10] = concentration of derivative of jasmonic acids 0.001 μM
[11] = concentration of derivative of jasmonic acids 0.01 μM
[12] = concentration of derivative of jasmonic acids 0.1 μM
[13] = concentration of derivative of jasmonic acids 1 μM
[14] = concentration of derivative of jasmonic acids 10 μM
[15] = concentration of derivative of jasmonic acids 1000 μM

Compound: CC/C=C\CC1/C(=N\NC(N)=O)CCC1CC(=O)OC (centres unmarked) [Example 35]
- yield of cultured cells [1, 5]: 15.3 g/L
- yield of taxane-type diterpenes, baccatin III [1, 5]: 17.2 mg/L
- yield of taxane-type diterpenes, cephalomannine [1, 5]: 5.0 mg/L
- yield of taxane-type diterpenes, taxol [1, 5]: 56.3 mg/L

Compound: CCCCC/C=C\C/C=C\CCCCCCCC(=O)O [Example 28, linolic acid]
- yield of cells [2]: 20 g/L
- yield of taxane-type diterpenes, baccatin III [2]: 2 mg/L
- yield of taxane-type diterpenes, cephalomannine [2]: 5 mg/L
- yield of taxane-type diterpenes, taxol [2]: 7 mg/L

Compound: CC/C=C\CC1C(CC(=O)OC)CCC1NO (centres unmarked) [Example 40]
- yield of cultured cells [1, 5]: 16.2 g/L
- yield of taxane-type diterpenes, baccatin III [1, 5]: 14.2 mg/L
- yield of taxane-type diterpenes, cephalomannine [1, 5]: 5.5 mg/L
- yield of taxane-type diterpenes, taxol [1, 5]: 73.3 mg/L

Compound: OC[C@H]1O[C@@H]2O[C@H]3[C@H](O)[C@@H](O)[C@@H](O[C@H]4[C@H](O)[C@@H](O)[C@@H](O[C@H]5[C@H](O)[C@@H](O)[C@@H](O[C@H]6[C@H](O)[C@@H](O)[C@@H](O[C@H]7[C@H](O)[C@@H](O)[C@@H](O[C@H]8[C@H](O)[C@@H](O)[C@@H](O[C@H]9[C@H](O)[C@@H](O)[C@@H](O[C@H]1[C@H](O)[C@H]2O)O[C@@H]9CO)O[C@@H]8CO)O[C@@H]7CO)O[C@@H]6CO)O[C@@H]5CO)O[C@@H]4CO)O[C@@H]3CO [Example 24, γ-cyclodextrin]
- yield of baccatin III [3, 6]: 85.2 mg/L
- yield of cephalomannine [3, 6]: 8.5 mg/L
- yield of cultured cells [3, 6]: 17.5 g/L
- yield of taxol [3, 6]: 45.2 mg/L

Compound: CC[C@H]1C=C(C(=O)OC)[C@H]2CCC(=O)[C@H]2C1 [Example 11, methyl ester of coronafacic acid]
- yield of baccatin III [4, 7]: 8.4 mg/L
- yield of cephalomannine [4, 7]: 5.1 mg/L
- yield of cultured cells [4, 7]: 19.2 g/L

Compound: CC/C=C\CC1C(=NS(N)(=O)=O)CCC1CC(=O)OC (centres unmarked) [Example 39]
- yield of cultured cells [1, 5]: 17.1 g/L
- yield of taxane-type diterpenes, baccatin III [1, 5]: 19.0 mg/L
- yield of taxane-type diterpenes, cephalomannine [1, 5]: 7.5 mg/L
- yield of taxane-type diterpenes, taxol [1, 5]: 85.0 mg/L

Compound: CC/C=C\CC1C(=NNS(C)(=O)=O)CCC1CC(=O)OC (centres unmarked) [Example 37]
- yield of cultured cells [1, 5]: 17.1 g/L
- yield of taxane-type diterpenes, baccatin III [1, 5]: 15.3 mg/L
- yield of taxane-type diterpenes, cephalomannine [1, 5]: 5.9 mg/L
- yield of taxane-type diterpenes, taxol [1, 5]: 73.3 mg/L

Compound: OC[C@H]1O[C@@H]2O[C@H]3[C@H](O)[C@@H](O)[C@@H](O[C@H]4[C@H](O)[C@@H](O)[C@@H](O[C@H]5[C@H](O)[C@@H](O)[C@@H](O[C@H]6[C@H](O)[C@@H](O)[C@@H](O[C@H]7[C@H](O)[C@@H](O)[C@@H](O[C@H]1[C@H](O)[C@H]2O)O[C@@H]7CO)O[C@@H]6CO)O[C@@H]5CO)O[C@@H]4CO)O[C@@H]3CO [Example 23, α-cyclodextrin]
- yield of baccatin III [3, 6]: 55.7 mg/L
- yield of cephalomannine [3, 6]: 7.5 mg/L
- yield of cultured cells [3, 6]: 16.6 g/L
- yield of taxol [3, 6]: 46.0 mg/L

Compound: CCC1C=C(C(=O)O)C2CCC(=O)C2C1 (centres unmarked) [Example 10, coronafacic acid]
- yield of baccatin III [4, 7]: 12.4 mg/L
- yield of cephalomannine [4, 7]: 3.0 mg/L
- yield of cultured cells [4, 7]: 18.6 g/L
- yield of taxol [4, 7]: 6.2 mg/L

Compound: CC/C=C\CC1/C(=N\OC)CCC1CC(=O)OC (centres unmarked) [Example 33]
- yield of cultured cells [1, 5]: 16.1 g/L
- yield of taxane-type diterpenes, baccatin III [1, 5]: 18.0 mg/L
- yield of taxane-type diterpenes, cephalomannine [1, 5]: 5.2 mg/L
- yield of taxane-type diterpenes, taxol [1, 5]: 65.3 mg/L

Compound: CC/C=C\CC1C(=NN)CCC1CC(=O)OC (centres unmarked) [Example 34]
- yield of cultured cells [1, 5]: 16.7 g/L
- yield of taxane-type diterpenes, baccatin III [1, 5]: 16.5 mg/L
- yield of taxane-type diterpenes, cephalomannine [1, 5]: 6.6 mg/L
- yield of taxane-type diterpenes, taxol [1, 5]: 55.0 mg/L

Compound: CC/C=C\CC1/C(=N\NC=O)CCC1CC(=O)OC (centres unmarked) [Example 36]
- yield of cultured cells [1, 5]: 17.2 g/L
- yield of taxane-type diterpenes, baccatin III [1, 5]: 18.5 mg/L
- yield of taxane-type diterpenes, cephalomannine [1, 5]: 6.2 mg/L
- yield of taxane-type diterpenes, taxol [1, 5]: 79.5 mg/L

Compound: cyclofructan [Example 25]
- yield of baccatin III [3, 6]: 51.4 mg/L
- yield of cephalomannine [3, 6]: 9.1 mg/L
- yield of cultured cells [3, 6]: 17.9 g/L
- yield of taxol [3, 6]: 48.9 mg/L

Compound: CC[C@H]1C=C(C(=O)N[C@@]2(C(=O)OC)C[C@@H]2CC)[C@H]2CCC(=O)[C@H]2C1 [Example 9, methyl ester of coronatine]
- yield of baccatin III [4, 8]: 4.6 mg/L
- yield of cephalomannine [4, 8]: 6.6 mg/L
- yield of cultured cells [4, 8]: 19.5 g/L
- yield of taxol [4, 8]: 11.3 mg/L

Compound: CCC1C=C(C(=O)NC(C(=O)O)C(C)C)C2CCC(=O)C2C1 (centres unmarked) [Example 8, N-coronafacoylvaline]
- yield of baccatin III [4, 8]: 25.0 mg/L
- yield of cephalomannine [4, 8]: 9.2 mg/L
- yield of cultured cells [4, 8]: 18.1 g/L
- yield of taxol [4, 8]: 51.1 mg/L

Compound: CC/C=C\CC1C(=O)CCC1CC(=O)OC (centres unmarked) [Reference Example 1, methyl jasmonate, reference compound]
- yield of baccatin III [3, 9]: 49.7 mg/L
- yield of cephalomannine [3, 9]: 7.3 mg/L
- yield of cultured cells [3, 9]: 15.4 g/L
- yield of taxol [3, 9]: 25.9 mg/L
- yield of cultured cells [1, 5]: 16.8 g/L
- yield of taxane-type diterpenes, baccatin III [1, 5]: 12.1 mg/L
- yield of taxane-type diterpenes, cephalomannine [1, 5]: 4.2 mg/L
- yield of taxane-type diterpenes, taxol [1, 5]: 48.0 mg/L

Compound: CC/C=C\CC1C(=NO)CCC1CC(=O)OC (centres unmarked) [Example 32]
- yield of cultured cells [1, 10]: 22.0 g/L
- yield of taxane-type diterpenes, baccatin III [1, 10]: 6.7 mg/L
- yield of taxane-type diterpenes, cephalomannine [1, 10]: 3.2 mg/L
- yield of taxane-type diterpenes, taxol [1, 10]: 16.7 mg/L
- yield of cultured cells [1, 11]: 21.1 g/L
- yield of taxane-type diterpenes, baccatin III [1, 11]: 6.8 mg/L
- yield of taxane-type diterpenes, cephalomannine [1, 11]: 3.6 mg/L
- yield of taxane-type diterpenes, taxol [1, 11]: 20.2 mg/L
- yield of cultured cells [1, 12]: 20.2 g/L
- yield of taxane-type diterpenes, baccatin III [1, 12]: 7.5 mg/L
- yield of taxane-type diterpenes, cephalomannine [1, 12]: 4.0 mg/L
- yield of taxane-type diterpenes, taxol [1, 12]: 24.1 mg/L
- yield of cultured cells [1, 13]: 19.5 g/L
- yield of taxane-type diterpenes, baccatin III [1, 13]: 8.5 mg/L
- yield of taxane-type diterpenes, cephalomannine [1, 13]: 4.2 mg/L
- yield of taxane-type diterpenes, taxol [1, 13]: 34.5 mg/L
- yield of cultured cells [1, 14]: 18.3 g/L
- yield of taxane-type diterpenes, baccatin III [1, 14]: 13.5 mg/L
- yield of taxane-type diterpenes, cephalomannine [1, 14]: 6.3 mg/L
- yield of taxane-type diterpenes, taxol [1, 14]: 56.2 mg/L
- yield of cultured cells [1, 5]: 16.4 g/L
- yield of taxane-type diterpenes, baccatin III [1, 5]: 20.1 mg/L
- yield of taxane-type diterpenes, cephalomannine [1, 5]: 9.2 mg/L
- yield of taxane-type diterpenes, taxol [1, 5]: 78.0 mg/L
- yield of cultured cells [1, 15]: 14.0 g/L
- yield of taxane-type diterpenes, baccatin III [1, 15]: 9.3 mg/L
- yield of taxane-type diterpenes, cephalomannine [1, 15]: 3.5 mg/L
- yield of taxane-type diterpenes, taxol [1, 15]: 17.2 mg/L

Compound: CC/C=C\CC1C(=NC#N)CCC1CC(=O)OC (centres unmarked) [Example 38]
- yield of cultured cells [1, 5]: 14.3 g/L
- yield of taxane-type diterpenes, baccatin III [1, 5]: 14.5 mg/L
- yield of taxane-type diterpenes, cephalomannine [1, 5]: 5.0 mg/L
- yield of taxane-type diterpenes, taxol [1, 5]: 82.9 mg/L

Compound: CCCCCCCC/C=C\CCCCCCCC(=O)O [Example 27, oleic acid]
- yield of cells [2]: 20 g/L
- yield of taxane-type diterpenes, baccatin III [2]: 2 mg/L
- yield of taxane-type diterpenes, cephalomannine [2]: 4 mg/L
- yield of taxane-type diterpenes, taxol [2]: 9 mg/L

Compound: CCCCC/C=C\C/C=C\C/C=C\C/C=C\CCCC(=O)O [Example 29, arachidonic acid]
- yield of cells [2]: 20 g/L
- yield of taxane-type diterpenes, baccatin III [2]: 2 mg/L
- yield of taxane-type diterpenes, cephalomannine [2]: 3 mg/L
- yield of taxane-type diterpenes, taxol [2]: 6 mg/L
